Reference: article PMC2233835 (The Journal of General Physiology, 2001)

How the values were obtained:
X-α homomeric channels = target: T1, X-α homomeric channels (Bos taurus, UniProt Q00194, A200G/A344S/A378F/A555M/A614G/C169F/D157S/D193E/D538A/D604Q/DEL101-144/DEL91-95/E147F/E148K/E189Q/E196F/E230D/E231L/F201L/F214C/F374V/G160D/G591K/I156V/I181L/I182V/I235R/I530V/I609E/I611V/INS98[…]/K146T/K150R/K151W/K237N/K239I/K346C/K506R/K521Q/K551Q/K564R/K590Q/K596R/K598R/L195F/L199V/L210I/L351F/L583V/M175L/M213T/M592V/M602R/N161D/N165Y/N610S/N613A/P158Q/P173A/Q494R/Q599E/Q97T/R232A/R345F/R369K/R512K/S192D/S205C/S240R/S350C/S371E/S537T/S540G/T162I/T171A/T179I/T217L/T364M/T584A/V153G/V154F/V174S/V208I/V215I/V534A/V535L/Y194N/Y197L/Y541C); test: Macroscopic current dose–response in inside-out patches from Xenopus oocytes; assay type: cell-based, chimera of bovine CNG1 and catfish CNG2
T1 sequence (Q00194 with tags, fused parts or gaps DEL91-95/Q97T/INS98[…]/DEL101-144/K146T/E147F/E148K/K150R/K151W/V153G/V154F/I156V/D157S/P158Q/G160D/N161D/T162I/N165Y/C169F/T171A/P173A/V174S/M175L/T179I/I181L/I182V/E189Q/S192D/D193E/Y194N/L195F/E196F/Y197L/L199V/A200G/F201L/S205C/V208I/L210I/M213T/F214C/V215I/T217L/E230D/E231L/R232A/I235R/K237N/K239I/S240R/A344S/R345F/K346C/S350C/L351F/T364M/R369K/S371E/F374V/A378F/Q494R/K506R/R512K/K521Q/I530V/V534A/V535L/S537T/D538A/S540G/Y541C/K551Q/A555M/K564R/L583V/T584A/K590Q/G591K/M592V/K596R/K598R/Q599E/M602R/D604Q/I609E/N610S/I611V/N613A/A614G): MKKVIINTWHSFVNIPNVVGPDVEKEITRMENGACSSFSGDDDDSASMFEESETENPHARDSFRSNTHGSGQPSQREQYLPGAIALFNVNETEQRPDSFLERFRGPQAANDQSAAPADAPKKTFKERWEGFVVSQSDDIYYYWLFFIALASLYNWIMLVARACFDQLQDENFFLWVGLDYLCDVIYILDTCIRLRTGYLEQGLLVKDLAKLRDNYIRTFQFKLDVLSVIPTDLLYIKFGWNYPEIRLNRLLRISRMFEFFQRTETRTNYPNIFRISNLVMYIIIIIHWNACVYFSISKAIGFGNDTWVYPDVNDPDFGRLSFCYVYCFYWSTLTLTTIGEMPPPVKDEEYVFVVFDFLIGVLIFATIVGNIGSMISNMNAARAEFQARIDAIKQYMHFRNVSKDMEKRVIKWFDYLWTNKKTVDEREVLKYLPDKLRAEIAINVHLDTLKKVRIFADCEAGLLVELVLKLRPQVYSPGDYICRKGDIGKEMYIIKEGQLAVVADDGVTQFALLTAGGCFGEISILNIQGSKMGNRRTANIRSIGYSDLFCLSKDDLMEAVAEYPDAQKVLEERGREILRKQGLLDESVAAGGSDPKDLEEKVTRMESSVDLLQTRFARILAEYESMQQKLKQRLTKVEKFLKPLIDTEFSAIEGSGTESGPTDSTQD

ROON-S2 = settings: mean ± SD, ref Tibbs et al. 1997, Tibbs et al. 1998; cited from earlier work
X-β homomeric channels = target: T2, X-β homomeric channels (Bos taurus, UniProt Q00194, A200G/A344S/A378F/A555S/A582V/A612E/C169F/D157S/D193E/D502E/D538A/D577E/D588Q/D604M/DEL101-144/DEL91-95/E147F/E148K/E189Q/E196F/E230D/E231L/F201L/F214C/F374V/F533Y/G160D/G591A/G605N/I156V/I181L/I182V/I235R/I504V/I530V/I566L/I609V/I611A/INS98[…]/K146T/K150R/K151W/K237N/K239I/K346C/K506R/K518R/K521Q/K554M/K590Q/K598R/L195F/L199V/L210I/L351F/L548I/L593M/L606K/M175L/M213T/M580R/M592V/M602L/N161D/N165Y/N613A/P158Q/P173A/Q599E/Q97T/R232A/R345F/R369K/S192D/S205C/S240R/S350C/S371E/S537G/S540L/S553N/T162I/T171A/T179I/T217L/T364M/T584S/V153G/V154F/V174S/V208I/V215I/V487E/V497T/V534A/Y194N/Y197L); test: Macroscopic current dose–response in inside-out patches from Xenopus oocytes; assay type: cell-based, chimera of bovine CNG1, catfish CNG2 and rat CNG5; settings: for Hill coefficient h: −100 mV
T2 sequence (Q00194 with tags, fused parts or gaps DEL91-95/Q97T/INS98[…]/DEL101-144/K146T/E147F/E148K/K150R/K151W/V153G/V154F/I156V/D157S/P158Q/G160D/N161D/T162I/N165Y/C169F/T171A/P173A/V174S/M175L/T179I/I181L/I182V/E189Q/S192D/D193E/Y194N/L195F/E196F/Y197L/L199V/A200G/F201L/S205C/V208I/L210I/M213T/F214C/V215I/T217L/E230D/E231L/R232A/I235R/K237N/K239I/S240R/A344S/R345F/K346C/S350C/L351F/T364M/R369K/S371E/F374V/A378F/V487E/V497T/D502E/I504V/K506R/K518R/K521Q/I530V/F533Y/V534A/S537G/D538A/S540L/L548I/S553N/K554M/A555S/I566L/D577E/M580R/A582V/T584S/D588Q/K590Q/G591A/M592V/L593M/K598R/Q599E/M602L/D604M/G605N/L606K/I609V/I611A/A612E/N613A): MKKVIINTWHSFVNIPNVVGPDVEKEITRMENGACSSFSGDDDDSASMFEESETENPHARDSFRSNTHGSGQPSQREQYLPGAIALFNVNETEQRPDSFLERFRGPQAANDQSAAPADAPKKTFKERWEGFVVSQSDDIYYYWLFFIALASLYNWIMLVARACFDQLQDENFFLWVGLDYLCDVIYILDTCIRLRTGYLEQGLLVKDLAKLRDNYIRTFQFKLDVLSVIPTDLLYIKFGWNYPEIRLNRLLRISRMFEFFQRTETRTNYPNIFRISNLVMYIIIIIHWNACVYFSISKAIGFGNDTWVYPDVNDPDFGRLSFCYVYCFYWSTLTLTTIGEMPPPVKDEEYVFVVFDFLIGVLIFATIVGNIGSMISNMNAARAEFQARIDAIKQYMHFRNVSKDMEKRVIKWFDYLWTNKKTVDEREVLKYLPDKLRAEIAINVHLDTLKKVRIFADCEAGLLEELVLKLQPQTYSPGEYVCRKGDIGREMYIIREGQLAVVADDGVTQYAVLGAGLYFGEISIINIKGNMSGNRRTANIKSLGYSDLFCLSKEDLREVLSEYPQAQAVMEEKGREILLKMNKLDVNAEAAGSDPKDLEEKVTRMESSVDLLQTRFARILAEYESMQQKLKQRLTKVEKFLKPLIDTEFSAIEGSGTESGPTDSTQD

## Nc1nc2c(ncn2[C@@H]2O[C@@H]3COP(=O)([O-])O[C@H]3[C@H]2O)c(=O)[nH]1.[Na+] [cGMP]
X-α homomeric channels; steady-state level lower than in 3 mM cGMP
  agonist concentration at which macroscopic current decays (desensitization): ≥ 10 mM
X-α homomeric channels; −100 mV, Hill fit of composite dataset, cGMP: only data ≤3 mM
  Hill coefficient h: 1.210 ± 0.046
ROON-S2
  Hill coefficient h: 1.89 ± 0.38 (10)
X-β homomeric channels; agonist up to 30 mM
  Desensitization: no evidence for this desensitization and No
X-β homomeric channels; macroscopic currents
  agonist character: full agonists
X-β homomeric channels; one patch (Fig. 1C), Hill fit ± SE
  Hill coefficient h: 1.94 ± 0.13
X-β homomeric channels; mean ± SD of individual patches
  Hill coefficient h: 2.07 ± 0.27 (9)
